Tested on: Endogenous Huntingtin Protein
Assay: Endogenous Huntingtin Protein Assay (ELISA-based MSD electrochemiluminescence)
Assay type: cell-based
Conditions: Table 2; MSD plates coated with MW1 (expanded polyglutamine) or MAB2166 capture antibody; "inactive" = result above the detection limit of the assay
How it was run: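 MSD electrochemiluminescence sandwich ELISA: capture with MW1 (expanded polyQ) or MAB2166 at 1 µg/mL, samples incubated overnight at 4 °C. Detection by rabbit mAb #56565 then SULFO-TAG anti-rabbit antibody, each 0.25 µg/mL for 1 h at room temperature, read in buffer T on SI 6000 imager.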

Structure (SMILES) | IC50 [nM]
COC[C@H]1CN(c2ncc(-c3ccc(-c4cn[nH]c4)cc3O)nn2)CCN1 [Cpd 53, 2-{3-[(3R)-3-(methoxymethyl)piperazin-1-yl]-1,2,4-triazin-6-yl}-5-(1H-pyrazol-4-yl)phenol] | 435
Cc1cn2cc(-c3ccc(-c4cnc(N5C[C@@H](C)N(C)[C@@H](C)C5)nn4)c(O)c3)cc(F)c2n1 [Cpd 94, 5-(8-fluoro-2-methylimidazo[1,2-a]pyridin-6-yl)-2-{3-[(3R,5S)-3,4,5-trimethylpiperazin-1-yl]-1,2,4-triazin-6-yl}phenol] | 8.3
C[C@@H]1CN(c2ncc(-c3ccc(-c4c[nH]nc4F)cc3O)nn2)C[C@H](C(C)(C)C)N1 [Cpd 248, 2-{3-[(3S,5R)-3-tert-butyl-5-methylpiperazin-1-yl]-1,2,4-triazin-6-yl]-5-(3-fluoro-1H-pyrazol-4-yl)phenol] | 74.9
CC(C)[C@H]1CN(c2ncc(-c3ccc(-c4cnsc4)cc3O)nn2)CCN1 [Cpd 250, 2-{3-[(3S)-3-(propan-2-yl)piperazin-1-yl]-1,2,4-triazin-6-yl]-5-(1,2-thiazol-4-yl)phenol] | 140
C[C@@H]1CN(c2ncc(-c3ccc(-c4cc5nn(C)nc5cn4)cc3O)nn2)C[C@H](C)N1 [Cpd 198, 2-{3-[(3R,5S)-3,5-dimethylpiperazin-1-yl]-1,2,4-triazin-6-yl}-5-(2-methyl-2H-[1,2,3]triazolo[4,5-c]pyridin-6-yl)phenol] | 12.5
CCC(C)C1CN(c2ncc(-c3ccc(-c4cn[nH]c4)cc3O)nn2)CCN1 (stereo not shown) [Cpd 33, 2-{3-[3-(butan-2-yl)piperazin-1-yl]-1,2,4-triazin-6-yl}-5-(1H-pyrazol-4-yl)phenol] | 41.4
Oc1cc(-c2cn[nH]c2)ccc1-c1cnc(N2CCNC3(CCCC3)C2)nn1 [Cpd 43, 2-[3-(6,9-diazaspiro[4.5]decan-9-yl)-1,2,4-triazin-6-yl]-5-(1H-pyrazol-4-yl)phenol] | 116
CC(C)[C@H]1CN(c2ncc(-c3ccc(-c4cn[nH]c4F)cc3O)nn2)C[C@@H](C)N1 [Cpd 222, 5-(5-fluoro-1H-pyrazol-4-yl)-2-{3-[(3R,5S)-3-methyl-5-(propan-2-yl)piperazin-1-yl]-1,2,4-triazin-6-yl]phenol] | 9.4
Cc1cn2nc(-c3ccc(-c4cnc(N5C[C@@H](C)N(C)[C@@H](C)C5)nn4)c(O)c3)cc(C)c2n1 [Cpd 111, 5-(2,8-dimethylimidazo[1,2-b]pyridazin-6-yl)-2-{3-[(3R,5S)-3,4,5-trimethylpiperazin-1-yl]-1,2,4-triazin-6-yl}phenol] | 27.5
CC[C@H]1CN(c2ncc(-c3ccc(-c4cn[nH]c4F)cc3O)nn2)C[C@@H](C)N1 [Cpd 223, 2-{3-[(3S,5R)-3-ethyl-5-methylpiperazin-1-yl]-1,2,4-triazin-6-yl]-5-(5-fluoro-1H-pyrazol-4-yl)phenol] | 7
CC(C)(C)[C@H]1CN(c2ncc(-c3ccc(-c4cn[nH]c4)cc3O)nn2)CCN1 [Cpd 16, 2-{3-[(3S)-3-tert-butylpiperazin-1-yl]-1,2,4-triazin-6-yl}-5-(1H-pyrazol-4-yl)phenol] | 13.2
Cc1cc(-c2cn[nH]c2)cc(O)c1-c1cnc(N2CCN[C@@H](C(C)C)C2)nn1 [Cpd 127, 3-methyl-2-{3-[(3S)-3-(propan-2-yl)piperazin-1-yl]-1,2,4-triazin-6-yl}-5-(1H-pyrazol-4-yl)phenol] | 672
CCCC1CN(c2ncc(-c3ccc(-c4cn[nH]c4)cc3O)nn2)CCN1 (stereo not shown) [Cpd 31, 2-[3-(3-propylpiperazin-1-yl)-1,2,4-triazin-6-yl]-5-(1H-pyrazol-4-yl)phenol] | 34.3
CC(C)C1CN(c2ncc(-c3ccc(-c4c[nH]nc4F)cc3O)nn2)CCN1 (stereo not shown) [Cpd 15, 5-(3-fluoro-1H-pyrazol-4-yl)-2-{3-[3-(propan-2-yl)piperazin-1-yl]-1,2,4-triazin-6-yl]phenol] | 12.8
C[C@@H]1CN(c2ncc(-c3ccc(-c4cnc5nn(C)cc5c4)cc3O)nn2)C[C@H](C)N1 [Cpd 97, 2-{3-[(3R,5S)-3,5-dimethylpiperazin-1-yl]-1,2,4-triazin-6-yl}-5-(2-methyl-2H-pyrazolo[3,4-b]pyridin-5-yl)phenol] | 9.8
CC(C)(C)[C@H]1CN(c2ncc(-c3ccc(-n4nccn4)cc3O)nn2)CCN1 [Cpd 18, 2-{3-[(3S)-3-tert-butylpiperazin-1-yl]-1,2,4-triazin-6-yl}-5-(2H-1,2,3-triazol-2-yl)phenol] | 15.1
Oc1cc(-c2cn[nH]c2)ccc1-c1cnc(N2CCNC(c3ccncc3)C2)nn1 (stereo not shown) [Cpd 62, 5-(1H-pyrazol-4-yl)-2-{3-[3-(pyridin-4-yl)piperazin-1-yl]-1,2,4-triazin-6-yl}phenol] | 2390
C[C@@H]1CN(c2ncc(-c3ccc(-c4ncns4)cc3O)nn2)C[C@H](C2CC2)N1 (single isomer, unassigned) [Cpd 269, 2-{3-[(3S,5R)-3-cyclopropyl-5-methylpiperazin-1-yl]-1,2,4-triazin-6-yl}-5-(1,2,4-thiadiazol-5-yl)phenol or 2-{3-[(3R,5S)-3-cyclopropyl-5-methylpiperazin-1-yl]-1,2,4-triazin-6-yl}-5-(1,2,4-thiadiazol-5-yl)phenol] | 53.9
COc1cc(-c2ccc(-c3cnc(N4C[C@@H](C)N[C@@H](C(C)(C)C)C4)nn3)c(O)c2)ncn1 [Cpd 255, 2-{3-[(3S,5R)-3-tert-butyl-5-methylpiperazin-1-yl]-1,2,4-triazin-6-yl}-5-(6-methoxypyrimidin-4-yl)phenol] | 341
CC(C)[C@H]1CN(c2ncc(-c3ccc(-c4cnc5nsnc5c4)cc3O)nn2)CCN1 [Cpd 264, 2-{3-[(3S)-3-(propan-2-yl)piperazin-1-yl]-1,2,4-triazin-6-yl}-5-([1,2,5]thiadiazolo[3,4-b]pyridin-6-yl)phenol] | 125
Cc1nc2c(C)nc(-c3ccc(-c4cnc(N5C[C@@H](C)N[C@@H](C)C5)nn4)c(O)c3)cn2n1 [Cpd 101, 2-{3-[(3R,5S)-3,5-dimethylpiperazin-1-yl]-1,2,4-triazin-6-yl}-5-(2,8-dimethyl[1,2,4]triazolo[1,5-a]pyrazin-6-yl)phenol] | 13
Cc1nc2c(C)cc(-c3ccc(-c4cnc(N5C[C@@H](C)N[C@@H](C)C5)nn4)c(O)c3)nn2n1 [Cpd 83, 2-{3-[(3R,5S)-3,5-dimethylpiperazin-1-yl]-1,2,4-triazin-6-yl}-5-(2,8-dimethyl[1,2,4]triazolo[1,5-b]pyridazin-6-yl)phenol] | 5.6
Cc1ccc2c(ccn2-c2ccc(-c3cnc(N4CCN[C@@H](C(C)C)C4)nn3)c(O)c2)n1 [Cpd 159, 5-(5-methyl-1H-pyrrolo[3,2-b]pyridin-1-yl)-2-{3-[(3S)-3-(propan-2-yl)piperazin-1-yl]-1,2,4-triazin-6-yl}phenol] | 62.2
CC(C)[C@H]1CN(c2ncc(-c3ccc(-c4nccs4)cc3O)nn2)CCN1 [Cpd 185, 2-{3-[(3S)-3-(propan-2-yl)piperazin-1-yl]-1,2,4-triazin-6-yl}-5-(1,3-thiazol-2-yl)phenol] | 158

Other lines, results leading:

IC50 [nM] | Structure (SMILES)
3.7 | Oc1cc(-c2cnn3c2CCC3)ccc1-c1cnc(N2CCN[C@@H](C3CC3)C2)nn1 [Cpd 276, 2-{3-[(3S)-3-cyclopropylpiperazin-1-yl]-1,2,4-triazin-6-yl}-5-(5,6-dihydro-4H-pyrrolo[1,2-b]pyrazol-3-yl)phenol]
7.7 | Oc1cc(-c2ncsn2)ccc1-c1cnc(N2CCN[C@@H](C3CC3)C2)nn1 [Cpd 213, 2-{3-[(3S)-3-cyclopropylpiperazin-1-yl]-1,2,4-triazin-6-yl]-5-(1,2,4-thiadiazol-3-yl)phenol]
6 | Cc1cn2cc(-c3ccc(-c4cnc(N5C[C@@H](C)N[C@@H](C)C5)nn4)c(O)c3)ncc2n1 [Cpd 86, 2-{3-[(3R,5S)-3,5-dimethylpiperazin-1-yl]-1,2,4-triazin-6-yl}-5-(2-methylimidazo[1,2-a]pyrazin-6-yl)phenol]
22.3 | CC(C)C1CN(c2ncc(-c3ccc(-c4cn[nH]c4)cc3O)nn2)CCN1 (stereo not shown) [Cpd 22, 2-{3-[3-(propan-2-yl)piperazin-1-yl]-1,2,4-triazin-6-yl}-5-(1H-pyrazol-4-yl)phenol]
24.8 | Oc1cc(-c2cnn3c2CCCC3)ccc1-c1cnc(N2CCNC(C3CC3)C2)nn1 (single isomer, unassigned) [Cpd 277, 2-{3-[(3S)-3-cyclopropylpiperazin-1-yl]-1,2,4-triazin-6-yl}-5-(4,5,6,7-tetrahydropyrazolo[1,5-a]pyridin-3-yl)phenol or 2-{3-[(3R)-3-cyclopropylpiperazin-1-yl]-1,2,4-triazin-6-yl}-5-(4,5,6,7-tetrahydropyrazolo[1,5-a]pyridin-3-yl)phenol]
8.3 | CC(C)[C@H]1CN(c2ncc(-c3ccc(-c4cnn5c4CCC5)cc3O)nn2)CCN1 [Cpd 278, 5-(5,6-dihydro-4H-pyrrolo[1,2-b]pyrazol-3-yl)-2-{3-[(3S)-3-(propan-2-yl)piperazin-1-yl]-1,2,4-triazin-6-yl}phenol]
12 | Oc1cc(-c2cn3ncnc3cn2)ccc1-c1cnc(N2CCN[C@@H](C3CC3)C2)nn1 [Cpd 130, 2-{3-[(3S)-3-cyclopropylpiperazin-1-yl]-1,2,4-triazin-6-yl}-5-([1,2,4]triazolo[1,5-a]pyrazin-6-yl)phenol]
4.2 | Oc1cc(-c2c[nH]nc2Cl)ccc1-c1cnc(N2CCN[C@@H](C3CC3)C2)nn1 [Cpd 163, 5-(3-chloro-1H-pyrazol-4-yl)-2-{3-[(3S)-3-cyclopropylpiperazin-1-yl]-1,2,4-triazin-6-yl}phenol]
4.4 | C[C@@H]1CN(c2ncc(-c3ccc(-c4cn[nH]c4F)cc3O)nn2)C[C@H](C2CC2)N1 [Cpd 221, 2-{3-[(3S,5R)-3-cyclopropyl-5-methylpiperazin-1-yl]-1,2,4-triazin-6-yl]-5-(5-fluoro-1H-pyrazol-4-yl)phenol]
7.3 | Cc1nc2cnc(-c3ccc(-c4cnc(N5CCN[C@@H](C(C)C)C5)nn4)c(O)c3)cn2n1 [Cpd 91, 5-(2-methyl[1,2,4]triazolo[1,5-a]pyrazin-6-yl)-2-{3-[(3S)-3-(propan-2-yl)piperazin-1-yl]-1,2,4-triazin-6-yl}phenol]
